This test concerns Aβ42 production. Put plainly: Quantification of Aβ peptide in culture of neurons from rat fetus brain (Aβ ELISA). Type of test: cell-based. Particulars: Rattus norvegicus, Neuron, 72 h, rat primary neuronal culture (embryonic day 18 Wistar rat cerebral cortex); cultured three days after addition of compound; Aβx-42 ELISA of the medium; read-out: Aβ42 production reducing effect IC50. Here is the method: Quantification of Aβ Peptide in Culture of Neurons from Rat Fetus Brain
(1) Rat Primary Neuronal Culture
Primary neuronal cultures were prepared from the cerebral cortex of embryonic day 18 Wistar rats (Charles River Japan, Yokohama, Japan). Specifically, the embryos were aseptically removed from pregnant rats under ether anesthesia. The brain was isolated from the embryo and immersed in an ice-cold L-15 medium (Invitrogen Corp. Cat #11415-064, Carlsbad, Calif., USA, or SIGMA L1518, for example). The cerebral cortex was collected from the isolated brain under a stereoscopic microscope. The cerebral cortex fragments collected were enzymatically treated in an enzyme solution containing 0.25% trypsin (Invitrogen Corp. Cat #15050-065, Carlsbad, Calif., USA) and 0.01% DNase (Sigma D5025, St. Louis, Mo., USA) at 37° C. for 30 minutes to disperse the cells. Here, the enzymatic reaction was stopped by adding inactivated horse serum to the solution. The enzymatically treated solution was centrifuged at 1,500 rpm for five minutes to remove the supernatant. 5 to 10 ml of a medium was added to the resulting cell mass. Neurobasal medium (Invitrogen Corp. Cat #21103-049, Carlsbad, Calif., USA) supplemented with 2% B27 supplement (Invitrogen Corp. Cat #17504-044, Carlsbad, Calif., USA), 25 μM 2-mercaptoethanol (2-ME, WAKO Cat #139-06861, Osaka, Japan), 0.5 mM L-glutamine (Invitrogen Corp. Cat #25030-081, Carlsbad, Calif., USA), and Antibiotics-Antimycotics (Invitrogen Corp. Cat #15240-062, Carlsbad, Calif., USA) was used as the medium (Neurobasal/B27/2-ME). However, the above Neurobasal medium not supplemented with 2-ME (Neurobasal/B27) was used for the assay. The cells were redispersed by mild pipetting of the cell mass to which the medium was added. The cell dispersion was filtered through a 40-μm nylon mesh (Cell Strainer, Cat #35-2340, Becton Dickinson Labware, Franklin Lakes, N.J., USA) to remove the remaining cell mass, and thus a neuronal cell suspension was obtained. The neuronal cell suspension was diluted with the medium and then plated in a volume of 100 μl/well at an initial cell density of 5×10^5 cells/cm^2 in a 96-well polystyrene culture plate pre-coated with poly-L or D-lysine (Falcon Cat #35-3075, Becton Dickinson Labware, Franklin Lakes, N.J., USA coated with poly-L-lysine using the method shown below, or BIOCOAT™ cell environments Poly-D-lysine cell ware 96-well plate, Cat #35-6461, Becton Dickinson Labware, Franklin Lakes, N.J., USA). Poly-L-lysine coating was carried out as follows. 100 μg/ml of a poly-L-lysine (SIGMA P2636, St. Louis, Mo., USA) solution was aseptically prepared with a 0.15 M borate buffer (pH 8.5). 100 μl/well of the solution was added to the 96-well polystyrene culture plate and incubated at room temperature for one or more hours or at 4° C. overnight or longer. The coated 96-well polystyrene culture plate was washed with sterile water four or more times, and then dried or rinsed with, for example, sterile PBS or medium, and used for cell plating. The plated cells were cultured in the culture plate at 37° C. in 5% CO2-95% air for one day. Then, the total amount of the medium was replaced with a fresh Neurobasal™/B27/2-ME medium, and then the cells were cultured for further three days.
The drug was added to the culture plate on Day 4 of culture as follows. The total amount of the medium was removed from the wells, and 180 μl/well of Neurobasal medium not containing 2-ME and containing 2% B-27 (Neurobasal/B27) was added thereto. A solution of the test compound in dimethyl sulfoxide (hereinafter abbreviated as DMSO) was diluted with Neurobasal/B27 at 10-fold of the final concentration. 20 μl/well of the dilution was added to and sufficiently mixed with the medium. The final DMSO concentration was 1% or less. Only DMSO was added to the control group.
The cells were cultured for three days after addition of the compound, and the total amount of the medium was collected. […]

The IC50 is the midpoint of a concentration-inhibition curve. On to `COc1nc(/C=C/c2nc3n(n2)CCCN3c2ccc(Cl)cc2)ccc1-n1cnc(C)c1` [Example 232, 4-(4-chlorophenyl)-2-{(E)-2-[6-methoxy-5-(4-methyl-1H-imidazol-1-yl)pyridin-2-yl]vinyl}-4,5,6,7-tetrahydro-[1,2,4]triazolo[1,5-a]pyrimidine], for which the IC50 was 33 nM. Consider `COc1cc(/C=C/c2nc3n(n2)CCCC3c2cccc(F)c2)ccc1-n1cnc(C)c1` (single isomer, unassigned; (-)) [Example 2, (−)-8-(3-fluorophenyl)-2-{(E)-2-[3-methoxy-4-(4-methyl-1H-imidazol-1-yl)phenyl]vinyl}-5,6,7,8-tetrahydro[1,2,4]triazolo[1,5-a]pyridine], for which the IC50 was determined as 28 nM. The result for `COc1cc(/C=C/c2nc3n(n2)CCC[C@]3(C#N)c2cc(F)c(F)c(F)c2)ccc1-n1cnc(C)c1` (single isomer, unassigned) [Example 72, (−)-2-{(E)-2-[3-methoxy-4-(4-methyl-1H-imidazol-1-yl)phenyl]vinyl}-8-(3,4,5-trifluorophenyl)-5,6,7,8-tetrahydro[1,2,4]triazolo[1,5-a]pyridine-8-carbonitrile] reads 26 nM. As for `COc1cc(/C=C(\F)c2nc3n(n2)CCC[C@]3(O)c2cc(F)c(F)c(F)c2)ccc1-n1cnc(C)c1` (single isomer, unassigned) [Example 94, (−)-2-{(Z)-1-fluoro-2-[3-methoxy-4-(4-methyl-1H-imidazol-1-yl)phenyl]vinyl}-8-(3,4,5-trifluorophenyl)-5,6,7,8-tetrahydro[1,2,4]triazolo[1,5-a]pyridin-8-ol], the concentration for half-maximal inhibition (IC50) was determined as 52 nM. The figure for `COc1nc(/C=C/c2nc3n(n2)CCC[C@H]3c2ccc(F)cc2Br)ccc1-n1cnc(C)c1` (single isomer, unassigned) [Example 185, (−)-8-(2-bromo-4-fluorophenyl)-2-{(E)-2-[6-methoxy-5-(4-methyl-1H-imidazol-1-yl)pyridin-2-yl]vinyl}-5,6,7,8-tetrahydro-[1,2,4]triazolo[1,5-a]pyridine] is 34 nM; for `COc1nc(/C=C/c2nc3n(n2)CCC[C@H]3c2cccc(F)c2F)ccc1-n1cnc(C)c1` (single isomer, unassigned) [Example 280, (−)-8-(2,3-difluorophenyl)-2-{(E)-2-[6-methoxy-5-(4-methyl-1H-imidazol-1-yl)pyridin-2-yl]vinyl}-5,6,7,8-tetrahydro-[1,2,4]triazolo[1,5-a]pyridine] it is 18 nM; for `COc1cc(/C=C/c2nc3n(n2)CCCC3(O)c2ccccc2F)ccc1-n1cnc(C)c1` (single isomer, unassigned) [Example 59, (−)-8-(2-fluorophenyl)-2-{(E)-2-[3-methoxy-4-(4-methyl-1H-imidazol-1-yl)phenyl]vinyl}-5,6,7,8-tetrahydro-[1,2,4]triazolo[1,5-a]pyridin-8-ol] it is 45 nM. With `COc1cc(/C=C/c2nc3n(n2)CC[C@H](O)[C@H]3c2cc(F)c(F)c(F)c2)ccc1-n1cnc(C)c1` [Example 103, (7S,8S)-2-{(E)-2-[3-methoxy-4-(4-methyl-1H-imidazol-1-yl)phenyl]vinyl}-8-(3,4,5-trifluorophenyl)-5,6,7,8-tetrahydro-[1,2,4]triazolo[1,5-a]pyridin-7-ol], the IC50 came to 32 nM. For `CCCCC(=O)c1ccc(C2CCCn3nc(/C=C/c4ccc(-n5cnc(C)c5)c(OC)c4)nc32)cc1` (single isomer, unassigned; (-)) [Example 3, (−)-1-{4-{2-{(E)-2-[3-methoxy-4-(4-methyl-1H-imidazol-1-yl)phenyl]vinyl}-5,6,7,8-tetrahydro[1,2,4]triazolo[1,5-a]pyridin-8-yl}phenyl}pentan-1-one], the IC50 turned out to be 48 nM. Take `COc1nc(/C=C/c2nc3n(n2)CCCC3c2c(F)cccc2C(F)(F)F)ccc1-n1cnc(C)c1` (single isomer, unassigned; (-)) [Example 331, (−)-8-(6-fluoro-2-trifluoromethylphenyl)-2-{(E)-2-[6-methoxy-5-(4-methyl-1H-imidazol-1-yl)pyridin-2-yl]vinyl}-5,6,7,8-tetrahydro-[1,2,4]triazolo[1,5-a]pyridine]: the IC50 is 22 nM.

As to `COc1nc(/C=C/c2nc3n(n2)CCCC3c2cccc(C(F)(F)F)c2)ccc1-n1cnc(C)c1` (single isomer, unassigned; (-)) [Example 321, (−)-2-{(E)-2-[6-methoxy-5-(4-methyl-1H-imidazol-1-yl)pyridin-2-yl]vinyl}-8-(3-trifluoromethylphenyl)-5,6,7,8-tetrahydro[1,2,4]triazolo[1,5-a]pyridine], the IC50 was 23 nM. In the case of `COc1cc(/C=C/c2nc3n(n2)CC[C@@H](C)[C@@H]3c2ccc(F)cc2)ccc1-n1cnc(C)c1` [Example 102, (7R,8R)-8-(4-fluorophenyl)-2-{(E)-2-[3-methoxy-4-(4-methyl-1H-imidazol-1-yl)phenyl]vinyl}-7-methyl-5,6,7,8-tetrahydro-[1,2,4]triazolo[1,5-a]pyridine], the IC50 stood at 20 nM.

For the compound `COc1nc(/C=C/c2nc3n(n2)CCCC3c2ccc(F)c(F)c2)ccc1-n1cnc(C)c1` (single isomer, unassigned) [Example 171, (−)-8-(3,4-difluorophenyl)-2-{(E)-2-[6-methoxy-5-(4-methyl-1H-imidazol-1-yl)pyridin-2-yl]vinyl}-5,6,7,8-tetrahydro-[1,2,4]triazolo[1,5-a]pyridine], the IC50 stood at 17 nM. As for `COc1nc(/C=C/c2nc3n(n2)CCC[C@H]3c2ccccc2)ccc1-n1cnc(C)c1` (single isomer, unassigned) [Example 207, (−)-2-{(E)-2-[6-methoxy-5-(4-methyl-1H-imidazol-1-yl)pyridin-2-yl]vinyl}-8-phenyl-5,6,7,8-tetrahydro-[1,2,4]triazolo[1,5-a]pyridine], the IC50 came out at 28 nM.

Consider `COc1nc(/C=C/c2nc3n(n2)CC[C@H](C)N3c2ccc(F)cc2)ccc1-n1cnc(C)c1` [Example 236, (S)-4-(4-fluorophenyl)-2-{(E)-2-[6-methoxy-5-(4-methyl-1H-imidazol-1-yl)pyridin-2-yl]vinyl}-5-methyl-4,5,6,7-tetrahydro-[1,2,4]triazolo[1,5-a]pyrimidine], for which the IC50 was 39 nM. Turning to `COc1cc(/C=C/c2nc3n(n2)CCCC3c2ccc(SC)cc2)ccc1-n1cnc(C)c1` (single isomer, unassigned; (-)) [Example 7, (−)-2-{(E)-2-[3-methoxy-4-(4-methyl-1H-imidazol-1-yl)phenyl]vinyl}-8-(4-methylsulfanylphenyl)-5,6,7,8-tetrahydro-[1,2,4]triazolo[1,5-a]pyridine], the IC50 was found to be 30 nM. `COc1cc(/C=C/c2nc3n(n2)CCC[C@@H]3C2CCOCC2)ccc1-n1cnc(C)c1` (single isomer, unassigned) [Example 116, (−)-2-{(E)-2-[3-methoxy-4-(4-methyl-1H-imidazol-1-yl)phenyl]vinyl}-8-(tetrahydropyran-4-yl)-5,6,7,8-tetrahydro[1,2,4]triazolo[1,5-a]pyridine]: the IC50 is 173 nM. On to `COCc1ccccc1C1CCCn2nc(/C=C/c3ccc(-n4cnc(C)c4)c(OC)c3)nc21` (single isomer, unassigned; (-)) [Example 22, (−)-2-{(E)-2-[3-methoxy-4-(4-methyl-1H-imidazol-1-yl)phenyl]vinyl}-8-(2-methoxymethylphenyl)-5,6,7,8-tetrahydro-[1,2,4]triazolo[1,5-a]pyridine], for which the IC50 is 25 nM.

The record behind these values is patent US7935815B2, “Imidazoyl pyridine compounds and salts thereof” (Eisai R&D Management Co., Ltd., priority 2007, dated 2011).
